The target in one assay is T1, RARα (Homo sapiens, UniProt P10276).
T1 sequence (P10276 1-462): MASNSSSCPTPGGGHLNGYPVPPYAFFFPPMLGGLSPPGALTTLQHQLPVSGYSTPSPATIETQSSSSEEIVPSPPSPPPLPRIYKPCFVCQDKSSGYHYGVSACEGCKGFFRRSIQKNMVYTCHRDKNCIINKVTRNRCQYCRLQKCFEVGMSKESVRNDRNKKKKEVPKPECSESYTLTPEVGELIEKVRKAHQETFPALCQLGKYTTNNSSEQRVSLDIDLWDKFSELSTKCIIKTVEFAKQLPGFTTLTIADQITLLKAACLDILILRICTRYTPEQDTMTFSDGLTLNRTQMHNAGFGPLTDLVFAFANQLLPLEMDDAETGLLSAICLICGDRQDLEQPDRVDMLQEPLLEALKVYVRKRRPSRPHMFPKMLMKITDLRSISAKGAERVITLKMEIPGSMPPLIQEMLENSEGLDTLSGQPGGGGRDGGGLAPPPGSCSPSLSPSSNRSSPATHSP
Description: RAR binding, RARα. To be noted: Kd from IC50 by Cheng-Prussof equation. Here is the method: (§1) Non-specific binding was defined as that binding remaining in the presence of 500 nM of the appropriate unlabelled compound. At the end of the incubation period, bound from free ligand were separated. The amount of bound tritiated retinoids was determined by liquid scintillation counting of an aliquot (700 μL) of the supernatant fluid or the hydroxylapatite pellet.
(§2) After correcting for non-specific binding, IC50 values were determined. […] The IC50 value was determined graphically from a log-logit plot of the data. The Kd values were determined by application of the Cheng-Prussof equation to the IC50 values, the labeled ligand concentration and the Kd of the labeled ligand.

Another assay concerns the target T2, RARβ (Homo sapiens, UniProt P10826).
T2 sequence (P10826 1-448 isoform P10826-2): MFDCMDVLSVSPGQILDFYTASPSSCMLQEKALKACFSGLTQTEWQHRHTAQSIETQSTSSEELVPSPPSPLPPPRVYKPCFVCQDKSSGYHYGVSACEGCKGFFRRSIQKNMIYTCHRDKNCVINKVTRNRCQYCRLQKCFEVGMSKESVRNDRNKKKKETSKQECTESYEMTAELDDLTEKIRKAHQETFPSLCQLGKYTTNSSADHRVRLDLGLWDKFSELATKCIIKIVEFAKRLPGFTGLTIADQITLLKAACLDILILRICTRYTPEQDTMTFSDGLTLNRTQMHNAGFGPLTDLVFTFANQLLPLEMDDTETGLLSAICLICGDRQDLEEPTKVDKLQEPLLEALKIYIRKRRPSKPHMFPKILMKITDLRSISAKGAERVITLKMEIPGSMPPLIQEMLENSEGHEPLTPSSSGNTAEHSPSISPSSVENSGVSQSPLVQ
Description: RAR binding, RARβ. The conditions noted are these: Kd from IC50 by Cheng-Prussof equation. The protocol: as §1, §2

A further assay deals with T3, RARγ (Homo sapiens, UniProt P13631).
T3 sequence (P13631 1-454): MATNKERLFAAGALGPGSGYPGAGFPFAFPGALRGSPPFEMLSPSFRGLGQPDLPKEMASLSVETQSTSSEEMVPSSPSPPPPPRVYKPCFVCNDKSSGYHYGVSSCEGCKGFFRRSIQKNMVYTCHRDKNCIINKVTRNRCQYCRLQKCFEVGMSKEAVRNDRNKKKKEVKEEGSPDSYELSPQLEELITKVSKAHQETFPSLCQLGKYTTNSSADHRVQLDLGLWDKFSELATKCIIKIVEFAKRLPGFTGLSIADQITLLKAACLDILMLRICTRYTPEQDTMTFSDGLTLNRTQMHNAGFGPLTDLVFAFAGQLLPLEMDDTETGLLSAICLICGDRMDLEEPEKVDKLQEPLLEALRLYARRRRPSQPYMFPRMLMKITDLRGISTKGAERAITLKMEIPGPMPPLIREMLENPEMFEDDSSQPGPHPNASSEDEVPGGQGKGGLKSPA
Nature of the assay: RAR binding, RARγ. To be noted: Kd from IC50 by Cheng-Prussof equation. Here is the method: as §1, §2

The next assay concerns RARs. Description: co-transfection assay, activity on RARs (overall statement). The class given is cell-based, human. To be noted: comparison compound. The protocol: Utilizing the "cis-trans" or "co-transfection" assay described by Evans et al., Science, 240:889-95 (May 13, 1988), the disclosure of which is herein incorporated by reference, the RAR antagonist compounds of the present invention were tested and found to have strong, specific activity as antagonists of RARs in the presence of RAR agonists. This assay is described in further detail in U.S. Pat. Nos. 4,981,784 and 5,071,773, the disclosures of which are incorporated herein by reference.
In the co-transfection assay, a cloned cDNA for an IR (e.g., human RARα:, RARβ, RXRγ) under the control of a constitutive promoter (e.g., the SV 40 promoter) is introduced by transfection (a procedure to induce cells to take up foreign genes) into a background cell substantially devoid of endogenous IRs. This introduced gene directs the recipient cells to make the IR protein of interest. A second gene is also introduced (co-transfected) into the same cells in conjunction with the IR gene. […]
The co-transfection assay can detect small molecule agonists or antagonists of target IRs. […] This activity can be conveniently measured, e.g., by increasing luciferase production, which reflects compound-dependent, IR-mediated increases in reporter transcription. […]

The results in this text go back to patent US5998654A, “Retinoic acid receptor antagonist compounds and methods” (Ligand Pharmaceuticals Incorporated, priority 1997, dated 1999).

What is called Kd is the equilibrium constant for the complex coming apart. A lower Kd goes with higher affinity.

For `COc1c(C(C)(C)C)cc(/C(C)=C/C=C/C(C)=C/C(=O)O)cc1C(C)(C)C` [A, reference compound], the equilibrium dissociation constant (Kd) amounted to 1 nM on RARα, 0.4 nM at RARβ and 0.5 nM at RARγ. In the assay with RARs, the “type of activity on RAR (in words)” value was “displays only activity as an RAR? agonist”.
